# According to article PMC10218941, “Design, Synthesis, Antiproliferative Actions, and DFT Studies of New Bis–Pyrazoline Derivatives as Dual EGFR/BRAF^V600E Inhibitors” (International Journal of Molecular Sciences, 2023):
# Columns and labels:
# [1] = Cell viability assay (MTT) on normal mammary epithelial cells; format: cell-based; conditions: human, MCF-10A normal mammary gland epithelial cells, MCF-10A cells, four days
# Description: To test the viability of new substances, the epithelial (MCF-10A) cell line of the normal human mammary gland was used. Compounds 8–17 were incubated for four days on MCF-10A cells before being tested for viability using the MTT assay. According to Table 1, none of the substances tested were cytotoxic, and cell viability at 50 µM was greater than 87% for the compounds tested.
# The normal human mammary gland epithelial (MCF-10A) cell line was used to test the viability of new compounds [46, 47]. See Appendix SA (Supplementary File).
# (§1) 4.2. Biological evaluation
# 4.2.1. Cytotoxic activity using MTT Assay and evaluation of IC50
# MTT assay was performed to investigate the effect of the synthesized compounds on mammary epithelial cells (MCF-10A). The cells were propagated in medium consisting of Ham's F-12 medium/ Dulbecco's modified Eagle's medium (DMEM) (1:1) supplemented with 10% foetal calf serum, 2 mM glutamine, insulin (10 μg/mL), hydrocortisone (500 ng/mL) and epidermal growth factor (20 ng/mL). Trypsin ethylenediamine tetra acetic acid (EDTA) was used to passage the cells after every 2-3 days. 96-well flat-bottomed cell culture plates were used to seed the cells at a […]
# of 10^4 cells mL-1. The medium was aspirated from all the wells of culture plates after 24 h followed by the addition of synthesized compounds (in 200 μL medium to yield a final concentration of 0.1% (v/v) dimethyl sulfoxide) into individual wells of the plates. Four wells were designated to a single compound. The plates were allowed to incubate at 37°C for 96 h. Afterwards, the medium was aspirated and 3 -[4,5-dimethylthiazol-2-yl]-2,5-diphenyltetrazolium bromide (MTT) (0.4 mg/mL) in medium was added to each well and subsequent ly incubated for 3 h. The medium was aspirated and 150 μL dimethyl sulfoxide (DMSO) was added to each well. The plates were vortexed followed by the measurement of absorbance at 540 nm on a microplate reader. […]
# [2] = test system: MCF-7 (breast cancer cell line); assay: Antiproliferative assay (MTT), MCF-7; format: cell-based; conditions: Homo sapiens, MCF7; read-out: Antiproliferative Activity IC50 ± SEM (µM) MCF-7
# Description: (§2) The antiproliferative activity of pyrazoline hybrids 8–17 was tested against the four human cancer cell lines Panc-1 (pancreatic cancer cell line), MCF-7 (breast cancer cell line), HT-29 (colon cancer cell line), and A-549 (lung cancer cell line) using the MTT assay and doxorubicin as the reference drug. See Appendix SA (Supplementary File).
# as §1
# 4.2.1. Cytotoxic activity using MTT Assay and evaluation of IC50 […]
# 96-well flat-bottomed cell culture plates were used to seed the cells at a […]
# of 10^4 cells mL-1. The medium was aspirated from all the wells of culture plates after 24 h followed by the addition of synthesized compounds (in 200 μL medium to yield a final concentration of 0.1% (v/v) dimethyl sulfoxide) into individual wells of the plates. Four wells were designated to a single compound. The plates were allowed to incubate at 37°C for 96 h. Afterwards, the medium was aspirated and 3 -[4,5-dimethylthiazol-2-yl]-2,5-diphenyltetrazolium bromide (MTT) (0.4 mg/mL) in medium was added to each well and subsequent ly incubated for 3 h. The medium was aspirated and 150 μL dimethyl sulfoxide (DMSO) was added to each well. The plates were vortexed followed by the measurement of absorbance at 540 nm on a microplate reader. The results were presented as inhibition (%) of proliferation in contrast to controls comprising 0.1% 4.2.1.2. Assay for antiproliferative effect
# (§3) To explore the antiproliferative potential of compounds propidium iodide fluorescence assay was performed using different cell lines such as Panc -1 (pancreas cancer cell line), MCF-7 (breast cancer cell line), HT-29 (colon cancer cell line) and A-549 (epithelial cancer cell line), respectively. To calculate the total nuclear DNA, a fluorescent dye (propidium iodide, PI) is used which can attach to the DNA, thus offering a quick and precise technique. PI cannot pass through the cell membrane and its signal intensity can be considered as directly proportional to quantity of cellular DNA. Cells whose cell membranes are damaged or have changed permeability are counted as dead ones. The assay was performed by seeding the cells of different cell lines at a density of 3000-7500 cells/well (in200μl medium) in culture plates followed by incubation for 24h at 37 °C in humidified 5%CO2/95% air atmospheric conditions. The medium was removed; the compounds were added to the plates at 10 μM concentrations (in 0.1% DMSO) in triplicates, followed by incubation for 48h. DMSO (0.1%) was used as control. After incubation, medium was removed followed by the addition of PI (25 μl, 50μg/mL in water/medium) to each well of the plates. At - 80 °C, the plates were allowed to freeze for 24 h, followed by thawing at 25 °C. A fluorometer (Polar-Star BMG Tech) was used to record the readings at excitation and emission wavelengths of 530 and 620 nm for each well. The percentage cytotoxicity of compounds was calculated using […]
# (§4) Where ATC= Absorbance of treated cells and AC= Absorbance of control. Erlotinib was used as positive control in the assay. […]
# [3] = test system: Panc-1 (pancreatic cancer cell line); assay: Antiproliferative assay (MTT), Panc-1; format: cell-based; conditions: Homo sapiens, read-out: Antiproliferative Activity IC50 ± SEM (µM) Panc-1
# Description: as §2, with “File). […]” for “File).”
# (§5) 4.2.1.2. Assay for antiproliferative effect
# as §3, §4
# [4] = test system: HT-29 (colon cancer cell line); assay: Antiproliferative assay (MTT), HT-29; format: cell-based; conditions: Homo sapiens, read-out: Antiproliferative Activity IC50 ± SEM (µM) HT-29
# Description: as §2, with “File). […]” for “File).”
# as §5, §3, §4
# [5] = test system: four human cancer cell lines (A-549, MCF-7, Panc-1, HT-29); assay: Antiproliferative assay, mean of four cancer cell lines (GI50); format: cell-based; conditions: mean over A-549, MCF-7, Panc-1, HT-29
# EGFR = biological target: T1, EGFR (Homo sapiens, UniProt P00533); assay: EGFR inhibitory assay; format: biochemical; conditions: read-out: EGFR Inhibition IC50 ± SEM
# T1 construct: 645–1186); His6 (N); made in house; host or cells: Sf-9 insect cells (baculovirus; pBlueBacHis2B / pFASTBacHTc
# T1 sequence (P00533 669-1210): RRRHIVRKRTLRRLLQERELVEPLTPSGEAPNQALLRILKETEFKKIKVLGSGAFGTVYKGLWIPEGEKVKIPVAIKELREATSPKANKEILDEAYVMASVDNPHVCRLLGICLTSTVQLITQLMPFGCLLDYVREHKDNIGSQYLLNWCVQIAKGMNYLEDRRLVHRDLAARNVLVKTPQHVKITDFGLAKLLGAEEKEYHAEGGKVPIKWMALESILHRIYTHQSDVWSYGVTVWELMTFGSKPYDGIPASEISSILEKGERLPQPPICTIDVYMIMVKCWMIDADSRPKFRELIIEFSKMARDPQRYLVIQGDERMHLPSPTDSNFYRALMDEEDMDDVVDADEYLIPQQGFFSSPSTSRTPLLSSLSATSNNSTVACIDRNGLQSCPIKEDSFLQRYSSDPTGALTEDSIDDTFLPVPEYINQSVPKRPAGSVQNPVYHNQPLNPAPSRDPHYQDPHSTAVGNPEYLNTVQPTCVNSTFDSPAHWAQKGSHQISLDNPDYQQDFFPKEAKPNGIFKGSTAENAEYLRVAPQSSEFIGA
# Description: 4.2.2. EGFR inhibitory assay
# Baculoviral expression vectors including pBlueBacHis2B and pFASTBacHTc were used […]
# (1 picture or pasted object on this page, not shown here)
# 5ʹ upstream to the EGFR sequence comprised a sequence that encoded (His)6. Sf-9 cells were infected for 72h for protein expression. The pellets of Sf-9 cells were solubilized in a buffer containing sodium vanadate (100 μM), aprotinin (10 μg/mL), triton (1%), HEPES […]
# centrifugation for 20 min.
# Histidine-linked proteins were first eluted with 250 and then […]
# enhancement solution was added to each well and the signal was recorded at excitation and […]
# The autophosphorylation percentage inhibition by compounds was calculated using the following equation: […]
# BRAF^V600E = BRAF^V600E inhibitory assay
# Sequence of BRAF^V600E (P28028 whole entry V585E): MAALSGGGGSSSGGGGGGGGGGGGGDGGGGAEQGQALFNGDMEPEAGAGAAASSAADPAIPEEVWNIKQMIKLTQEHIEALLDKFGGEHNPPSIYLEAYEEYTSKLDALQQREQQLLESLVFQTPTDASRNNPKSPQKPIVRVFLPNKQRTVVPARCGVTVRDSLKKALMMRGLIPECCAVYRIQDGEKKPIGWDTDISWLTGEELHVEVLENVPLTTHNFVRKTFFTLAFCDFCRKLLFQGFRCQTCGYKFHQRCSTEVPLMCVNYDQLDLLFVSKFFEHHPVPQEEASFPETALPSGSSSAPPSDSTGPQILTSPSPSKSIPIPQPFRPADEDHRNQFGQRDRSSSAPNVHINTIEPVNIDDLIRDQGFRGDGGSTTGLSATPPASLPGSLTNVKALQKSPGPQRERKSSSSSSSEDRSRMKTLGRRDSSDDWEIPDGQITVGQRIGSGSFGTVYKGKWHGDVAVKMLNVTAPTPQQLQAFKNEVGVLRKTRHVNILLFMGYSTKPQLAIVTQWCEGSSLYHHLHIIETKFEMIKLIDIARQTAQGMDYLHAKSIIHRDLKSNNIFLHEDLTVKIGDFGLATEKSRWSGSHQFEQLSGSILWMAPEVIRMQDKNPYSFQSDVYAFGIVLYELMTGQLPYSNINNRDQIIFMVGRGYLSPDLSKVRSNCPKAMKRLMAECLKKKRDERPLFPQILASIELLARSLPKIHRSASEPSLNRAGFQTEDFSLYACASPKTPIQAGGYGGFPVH
# Description: V600E mutant BRAF kinase assay was performed to investigate the activity of tested compounds against BRAF. Mouse full-length GST-tagged BRAFV600E (7.5 ng, Invitrogen, PV3849) was pre-incubated with drug (1 µL) and assay dilution buffer (4 µL) for 60 min at 25 °C. In assay dilution buffer, a solution (5 µL) containing MgCl2 (30 mM), ATP (200 µM), recombinant human full length (200 ng) and N-terminal His-tagged MEK1 (Invitrogen) was added to start the assay, subsequent to incubation for 25 min at 25 °C. The assay was stopped using 5X protein denaturing buffer (LDS) solution (5 µL). To further denature the protein, heat (70° C) was applied for 5 min.
# 10 µL of each reaction was loaded into the precast plates and electrophoresis was allowed to proceed. After completion of electrophoresis, the front part of the precast gel plate (holding hot ATP) was cut and afterwards cast-off. The dried gel was developed using a phosphor screen.
# served as positive control.
IC50 [2],IC50 [3],IC50 [4],IC50 [5],IC50 (EGFR),IC50 (BRAF^V600E),SMILES,"viability at 96 h, 50 µM [1]"
0.9 ± 0.1 µM,1.1 ± 0.1 µM,1.2 ± 0.1 µM,1050 nM,81 ± 5 nM,93 ± 6 nM,"COc1ccc(C2CC(c3ccc(OCC(=O)Nc4ccc(C5=NNC(c6ccc(OC)c(OC)c6)C5)cc4)cc3)=NN2)cc1 (centres unmarked) [Compound 12, 2-(4-(5-(4-Methoxyphenyl)-4,5-dihydro-1H-pyrazol-3-yl)phenoxy)-N-(4-(5-(3,4-dimethoxyphenyl)-4,5-dihydro-1H-pyrazol-3-yl)phenyl)acetamide]",90%
1 ± 0.1 µM,1.3 ± 0.1 µM,1.3 ± 0.1 µM,1200 nM,87 ± 6 nM,107 ± 9 nM,"COc1ccc(C2CC(c3ccc(NC(=O)COc4ccc(C5=NNC(c6ccc(OC)c(OC)c6)C5)cc4)cc3)=NN2)cc1 (centres unmarked) [Compound 17, 2-(4-(5-(3,4-Dimethoxyphenyl)-4,5-dihydro-1H-pyrazol-3-yl)phenoxy)-N-(4-(5-(4-methoxyphenyl)-4,5-dihydro-1H-pyrazol-3-yl)phenyl)acetamide]",91%
